Experimental findings from patent publication US20090030039A1, “Piperidine Derivatives as Cxcr3 Receptor Antagonists” (priority 2006, published 2009) are described below.

Each structure is given as a SMILES string.

The target in the first assay is T1, human CXCR3 (Homo sapiens, UniProt P49682).
T1 construct: expressed in transfected cells; host or cells: CHO cells (membrane preparation)
T1 sequence (P49682 1-368): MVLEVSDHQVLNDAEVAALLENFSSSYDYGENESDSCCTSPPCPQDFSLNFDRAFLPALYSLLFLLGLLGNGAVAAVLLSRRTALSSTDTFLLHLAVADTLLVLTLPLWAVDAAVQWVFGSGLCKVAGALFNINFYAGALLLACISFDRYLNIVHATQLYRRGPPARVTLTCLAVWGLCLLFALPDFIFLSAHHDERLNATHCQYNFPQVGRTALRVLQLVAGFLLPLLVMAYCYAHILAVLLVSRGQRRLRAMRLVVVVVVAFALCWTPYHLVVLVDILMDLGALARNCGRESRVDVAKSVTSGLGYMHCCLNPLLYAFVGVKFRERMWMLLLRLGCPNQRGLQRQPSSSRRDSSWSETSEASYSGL
Description: [35S]GTPγS exchange assay, CXCR3 receptor inhibition (hI-TAC-induced GTPγS-binding). As to conditions: -log IC50 (molar) inhibiting 50% of specific I-TAC-induced GTPγS-binding; membranes of human CXCR3-transfected CHO cells. The format is biochemical. The protocol: CXCR3 Receptor Inhibition was Examined in a [^35S]GTPγS Exchange Assay
The exchange of guanosine 5′-[^35S]triphosphate was measured on membranes of human CXCR3-transfected CHO cells. [^35S]GTPγS exchange assays were performed in 96-well plates with 10 μg of membrane protein/well using basic flashplates (Perkin Elmer). Compounds were dissolved in DMSO and diluted with incubation buffer to yield required concentrations with 9% DMSO. Incubation buffer is composed of 20 mM HEPES, 100 mM NaCl, 3 μM GDP and 1 mM MgCl2, pH 7.4. […] Compound, membranes, hI-TAC (interferon-inducible T-cell alpha chemoattractant) and [^35S]GTPγS were added in a total volume of 200 μl. First, 20 μl of the appropriate compound dilution and 140 μl membranes from CXCR3-CHO cells were dissolved in membrane incubation buffer and pre-incubated for 30 minutes at 30° C. Then, 20 μl of hI-TAC dissolved at 30 nM in incubation buffer was added to the membranes and the mixture containing 1% of DMSO was incubated for another 30 minutes at 30° C. […] After 1 minute shaking and 30 minutes incubation at 30° C., flashplates were centrifuged for 5 minutes at 2500 rpm at room temperature. Flashplate bound radioactivity was determined by liquid scintillation counting. Basal GTPγS-binding was measured in 8 wells with membranes incubated in the same volume with 1% DMSO, without I-TAC. Maximal GTPγS-binding was measured in 8 wells with membranes incubated with 1% DMSO and 3 nM I-TAC. […] IC50 values were calculated using non-linear regression in Graphpad Prism.
The compound `CCN1C(=O)CCC(c2ccccc2)(C2CCN(Cc3ccc(Br)cc3)CC2)C1=O` (centres unmarked) [Compound 126] had a pIC50 of 5.6.
Still for that read-out and setting: next, `CC(C)N1C(=O)CCC(c2ccccc2)(C2CCN(Cc3ccc(Br)cc3)CC2)C1=O` (centres unmarked) [Compound 127]: 5.3; `COCCN1C(=O)CCC(c2ccccc2)(C2CCN(Cc3ccc(Br)cc3)CC2)C1=O` (centres unmarked) [Compound 129]: 5.7.
`O=C1NCCCC1(c1ccccc1)C1CCN(Cc2ccc(Br)cc2)CC1` (centres unmarked) [Compound 142] returned a pIC50 of 5.8.
In turn, `O=C1CCC(c2cccnc2)(C2CCN(Cc3ccc(Br)cc3)CC2)C(=O)N1` (centres unmarked) [Compound 178] returned a pIC50 of 6.0.
In turn, `O=C1CCC(c2ccc(C(=O)O)cc2)(C2CCN(Cc3ccc(Br)cc3)CC2)C(=O)N1` (centres unmarked) [Compound 193] returned a pIC50 of 5.3.

Still in this assay, the particulars now being: -log IC50 (molar) inhibiting 50% of specific I-TAC-induced GTPγS-binding; membranes of human CXCR3-transfected CHO cells; read-out: pIC50 (converted).
For `CN1C(=O)CCC(c2ccccc2)(C2CCN(Cc3ccc(Cl)cc3)CC2)C1=O` (centres unmarked) [Compound 120], the IC50 is 1580 nM.
As for `COC(=O)CCN1C(=O)CCC(c2ccccc2)(C2CCN(Cc3ccc(Cl)cc3)CC2)C1=O` (centres unmarked) [Compound 121], the IC50 was 6310 nM.
Regarding `CN1C(=O)CCC(c2ccccc2)(C2CCN(Cc3ccc(Cl)c(Cl)c3)CC2)C1=O` (centres unmarked) [Compound 122], the IC50 was 5010 nM.
Take `COC(=O)CCN1C(=O)CCC(c2ccccc2)(C2CCN(Cc3ccc(Cl)cc3Cl)CC2)C1=O` (centres unmarked) [Compound 124]: the IC50 is 1000 nM.
Same read-out and setting: the same measure for `CCCN1C(=O)CCC(c2ccccc2)(C2CCN(Cc3ccc(Br)cc3)CC2)C1=O` (centres unmarked) [Compound 128]: 3980 nM; for `COC(=O)CCN1C(=O)CCC(c2ccccc2)(C2CCN(Cc3ccc(Br)cc3)CC2)C1=O` (centres unmarked) [Compound 130]: 3980 nM.
Same read-out and setting: next, `CN1C(=O)CCC(c2ccccc2)(C2CCN(Cc3ccc(C(F)(F)F)cc3)CC2)C1=O` (centres unmarked) [Compound 131]: 3980 nM; `COC(=O)CCN1C(=O)CCC(c2ccccc2)(C2CCN(Cc3ccc(C(F)(F)F)cc3)CC2)C1=O` (centres unmarked) [Compound 132]: 631 nM; `O=C1CCC(c2ccccc2)(C2CCN(Cc3ccc(F)cc3)CC2)CN1` (centres unmarked) [Compound 133]: 1580 nM.
For `O=C1CCC(c2ccc(F)cc2)(C2CCN(Cc3ccc(F)c(Cl)c3)CC2)CN1` (centres unmarked) [Compound 134], the IC50 was 3980 nM.
Regarding `O=C1CCC(c2ccccc2)(C2CCN(Cc3ccc(Cl)cc3)CC2)CN1` (centres unmarked) [Compound 135], the IC50 was 1000 nM.
In the case of `O=C1CCC(c2ccc(F)cc2)(C2CCN(Cc3ccc(Cl)cc3)CC2)CN1` (centres unmarked) [Compound 136], the IC50 is 794 nM.
Consider `O=C1CCC(c2ccccc2)(C2CCN(Cc3ccc(Cl)cc3Cl)CC2)CN1` (centres unmarked) [Compound 137], for which the IC50 was 631 nM.
The same measure, in the same setting: the same measure for `O=C1CCC(c2ccc(F)cc2)(C2CCN(Cc3ccc(Cl)cc3Cl)CC2)CN1` (centres unmarked) [Compound 138]: 1580 nM.
On to `O=C1CCC(c2ccc(F)cc2)(C2CCN(Cc3ccc(Cl)c(F)c3)CC2)CN1` (centres unmarked) [Compound 139], for which the IC50 was 1580 nM.
On to `O=C1CCC(c2ccccc2)(C2CCN(Cc3ccc(Cl)c(Cl)c3)CC2)CN1` (centres unmarked) [Compound 140], for which the IC50 was 794 nM.
Take `O=C1CCC(c2ccc(F)cc2)(C2CCN(Cc3ccc(Cl)c(Cl)c3)CC2)CN1` (centres unmarked) [Compound 141]: the IC50 is 1580 nM.
In the case of `O=C1CCC(c2ccc(F)cc2)(C2CCN(Cc3ccc(Br)cc3)CC2)CN1` (centres unmarked) [Compound 143], the IC50 is 631 nM.
On to `CC(c1ccc(Br)cc1)N1CCC(C2(c3ccc(F)cc3)CCC(=O)NC2)CC1` (centres unmarked) [Compound 144], for which the IC50 was 631 nM.
In the case of `Cc1cc(CN2CCC(C3(c4ccc(F)cc4)CCC(=O)NC3)CC2)ccc1Br` (centres unmarked) [Compound 145], the IC50 was 794 nM.
As for `O=C1CCC(c2ccccc2)(C2CCN(Cc3ccc(C(F)(F)F)cc3)CC2)CN1` (centres unmarked) [Compound 146], the IC50 is 2510 nM.
With `O=C1CCC(c2ccc(F)cc2)(C2CCN(Cc3ccc(OC(F)F)cc3)CC2)CN1` (centres unmarked) [Compound 147], the IC50 is 3980 nM.
In the case of `O=C1CCC(c2ccccc2)(C2CCN(Cc3ccc(OCc4ccc(Cl)cc4)cc3)CC2)CN1` (centres unmarked) [Compound 148], the IC50 was 6310 nM.
Consider `O=C1CCC(c2cccc(Cl)c2)(C2CCN(Cc3ccc4ccccc4c3)CC2)C(=O)N1` (centres unmarked) [Compound 149], for which the IC50 was 5010 nM.
For `O=C1CCC(c2ccc(F)cc2)(C2CCN(Cc3ccc4ccccc4c3)CC2)C(=O)N1` (centres unmarked) [Compound 150], the IC50 was 1000 nM.
Still for that read-out and setting: next, `O=C1CCC(c2ccccc2)(C2CCN(Cc3ccc(Cl)s3)CC2)C(=O)N1` (centres unmarked) [Compound 151]: 3160 nM.
As for `O=C1CCC(c2cccc(Cl)c2)(C2CCN(Cc3ccc(Cl)s3)CC2)C(=O)N1` (centres unmarked) [Compound 152], the IC50 is 794 nM.
As for `O=C1CCC(c2ccc(F)cc2)(C2CCN(Cc3ccc(Cl)s3)CC2)C(=O)N1` (centres unmarked) [Compound 153], the IC50 is 1260 nM.
On to `O=C1CCC(c2ccccc2)(C2CCN(Cc3ccc(Cl)s3)CC2)C(=O)N1` (centres unmarked) [Compound 154], for which the IC50 was 2510 nM.
For the compound `O=C1CCC(c2ccccc2)(C2CCN(Cc3cc(F)c(F)cc3F)CC2)C(=O)N1` (centres unmarked) [Compound 155], the IC50 is 2510 nM.
The same measure, in the same setting: next, `O=C1CCC(c2ccc(F)cc2)(C2CCN(Cc3cc(F)c(F)cc3F)CC2)C(=O)N1` (centres unmarked) [Compound 156]: 794 nM.
Consider `Cc1cc(C)c(CN2CCC(C3(c4ccccc4)CCC(=O)NC3=O)CC2)c(C)c1` (centres unmarked) [Compound 157], for which the IC50 was 3160 nM.
For the compound `O=C1CCC(c2ccccc2)(C2CCN(Cc3cc4cc(Br)ccc4o3)CC2)C(=O)N1` (centres unmarked) [Compound 158], the IC50 was 1260 nM.
In the case of `O=C1CCC(c2cccc(C(=O)O)c2)(C2CCN(Cc3cc4cc(Br)ccc4o3)CC2)C(=O)N1` (centres unmarked) [Compound 160], the IC50 was 316 nM.
As to `O=C1CCC(c2ccc(F)cc2)(C2CCN(Cc3cc4cc(Br)ccc4o3)CC2)C(=O)N1` (centres unmarked) [Compound 161], the IC50 was 3160 nM.
On the same count and under the same terms, next, `O=C1CCC(c2ccc(F)cc2)(C2CCN(Cc3ccc4nonc4c3)CC2)C(=O)N1` (centres unmarked) [Compound 163]: 3980 nM; `CC(c1ccc(Br)cc1)N1CCC(C2(c3cccc(Cl)c3)CCC(=O)NC2=O)CC1` (centres unmarked) [Compound 164]: 1000 nM.
`CC(c1ccc(Br)cc1)N1CCC(C2(c3cccc(C(=O)O)c3)CCC(=O)NC2=O)CC1` (centres unmarked) [Compound 165]: the IC50 was 794 nM.
`O=C1CCC(c2ccncc2)(C2CCN(Cc3ccc(Cl)c(Cl)c3)CC2)C(=O)N1` (centres unmarked) [Compound 169]: the IC50 is 1000 nM.
Turning to `CC(c1ccc(Br)cc1)N1CCC(C2(c3ccncc3)CCC(=O)NC2=O)CC1` (centres unmarked) [Compound 171], the IC50 was 1580 nM.
On the same count and under the same terms, next, `O=C1CCC(c2ccncc2)(C2CCN(Cc3ccc(-c4ccccc4)cc3)CC2)C(=O)N1` (centres unmarked) [Compound 174]: 5010 nM; `O=C1CCC(c2cccnc2)(C2CCN(Cc3ccc(F)c(F)c3F)CC2)C(=O)N1` (centres unmarked) [Compound 175]: 1000 nM; `O=C1CCC(c2cccnc2)(C2CCN(Cc3ccc(Cl)c(F)c3)CC2)C(=O)N1` (centres unmarked) [Compound 176]: 2000 nM.
Consider `O=C1CCC(c2cccnc2)(C2CCN(Cc3ccc(Cl)c(Cl)c3)CC2)C(=O)N1` (centres unmarked) [Compound 177], for which the IC50 was 1000 nM.
Regarding `O=C1CCC(c2cccnc2)(C2CCN(Cc3ccc(Br)cc3F)CC2)C(=O)N1` (centres unmarked) [Compound 179], the IC50 is 2000 nM.
With `O=C1CCC(c2cccnc2)(C2CCN(Cc3ccc(OC(F)(F)F)cc3)CC2)C(=O)N1` (centres unmarked) [Compound 180], the IC50 is 2510 nM.
Still for that read-out and setting: next, `O=C1CCC(c2ccncc2)(C2CCN(Cc3cc4cc(Br)ccc4o3)CC2)C(=O)N1` (centres unmarked) [Compound 183]: 1260 nM; `O=C1CCC(c2cccnc2)(C2CCN(Cc3cc4cc(Br)ccc4o3)CC2)C(=O)N1` (centres unmarked) [Compound 184]: 1580 nM.
For `O=C1CCC(c2ccc([N+](=O)[O-])cc2)(C2CCN(Cc3ccccc3[N+](=O)[O-])CC2)C(=O)N1` (centres unmarked) [Compound 186], the IC50 was over 10000 nM.
The same measure, in the same setting: next, `O=C1CCC(c2ccccc2)(C2CCN(Cc3ccc(Cl)cc3)CC2)C(=O)N1Cc1ccc(Cl)cc1` (centres unmarked) [Compound 189]: 2000 nM; `O=C1CCC(c2ccc(C(=O)O)cc2)(C2CCN(Cc3ccc(F)c(Cl)c3)CC2)C(=O)N1` (centres unmarked) [Compound 190]: 6310 nM; `O=C1CCC(c2ccc(C(=O)O)cc2)(C2CCN(Cc3ccc(Cl)cc3)CC2)C(=O)N1` (centres unmarked) [Compound 191]: 5010 nM.
Consider `O=C1CCC(c2ccc(F)c(F)c2)(C2CCN(Cc3ccc(Cl)c(F)c3)CC2)C(=O)N1` (centres unmarked) [Compound 192], for which the IC50 is 2510 nM.
